Laboratory results as given in PubChem BioAssay AID1963967 (Molecular Pharmacology Branch, DTP, NCI, 2024).

Test system: 855422-203-R-J1-PDC spheroids with HUVEC/MSC, viability
Test: Anticancer human tumor 855422-203-R-J1-PDC patient-derived bladder carcinoma cell line growth inhibition [PI3K]
Settings: for viability, T/C: stronger effect = lower value
Method in brief: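 Three cell types, namely tumor cells, endothelial cells and mesenchymal stem cells, formed each spheroid. Combinations with four PI3K inhibitors were screened at clinically achievable concentrations decreasing by half-log, and spheroid viability was recorded.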

[1] = curve of first compound, second compound 0.0316 µM
[2] = curve of first compound, second compound 0.1 µM
[3] = curve of first compound, second compound 0.316 µM
[4] = curve of first compound, second compound 1 µM
[5] = curve of first compound, second compound 3.16 µM
[6] = curve of first compound, second compound 10 µM
[7] = second compound 0.0316 µM, first compound 0.0316 µM
[8] = second compound 0.0316 µM, first compound 0.1 µM
[9] = second compound 0.0316 µM, first compound 0.316 µM
[10] = second compound 0.0316 µM, first compound 1 µM
[11] = second compound 0.0316 µM, first compound 3.16 µM
[12] = second compound 0.0316 µM, first compound 10 µM
[13] = second compound 0.1 µM, first compound 0.0316 µM
[14] = second compound 0.1 µM, first compound 0.1 µM
[15] = second compound 0.1 µM, first compound 0.316 µM
[16] = second compound 0.1 µM, first compound 1 µM
[17] = second compound 0.1 µM, first compound 3.16 µM
[18] = second compound 0.1 µM, first compound 10 µM
[19] = second compound 0.316 µM, first compound 0.0316 µM
[20] = second compound 0.316 µM, first compound 0.1 µM
[21] = second compound 0.316 µM, first compound 0.316 µM
[22] = second compound 0.316 µM, first compound 1 µM
[23] = second compound 0.316 µM, first compound 3.16 µM
[24] = second compound 0.316 µM, first compound 10 µM
[25] = second compound 1 µM, first compound 0.0316 µM
[26] = second compound 1 µM, first compound 0.1 µM
[27] = second compound 1 µM, first compound 0.316 µM
[28] = second compound 1 µM, first compound 1 µM
[29] = second compound 1 µM, first compound 3.16 µM
[30] = second compound 1 µM, first compound 10 µM
[31] = second compound 3.16 µM, first compound 0.0316 µM
[32] = second compound 3.16 µM, first compound 0.1 µM
[33] = second compound 3.16 µM, first compound 0.316 µM
[34] = second compound 3.16 µM, first compound 1 µM
[35] = second compound 3.16 µM, first compound 3.16 µM
[36] = second compound 3.16 µM, first compound 10 µM
[37] = second compound 10 µM, first compound 0.0316 µM
[38] = second compound 10 µM, first compound 0.1 µM
[39] = second compound 10 µM, first compound 0.316 µM
[40] = second compound 10 µM, first compound 1 µM
[41] = second compound 10 µM, first compound 3.16 µM
[42] = second compound 10 µM, first compound 10 µM
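Further: agents incubated with spheroids for one week before read-out.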
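Wherever viability, T/C is given: 100% = DMSO vehicle-treated control wells.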

C=CC(=O)N1CCN(c2nc(=O)n(-c3c(C)ccnc3C(C)C)c3nc(-c4c(O)cccc4F)c(F)cc23)C(C)C1 (stereo unspecified) + CC(Nc1ncnc2nc[nH]c12)c1cc2cccc(Cl)c2c(=O)n1-c1ccccc1
IC50 [1]: > 10 µM | IC50 [2]: > 10 µM | IC50 [3]: > 10 µM | IC50 [4]: > 10 µM | IC50 [5]: > 10 µM | IC50 [6]: > 10 µM | viability, T/C [7]: 107% | viability, T/C [8]: 91.1% | viability, T/C [9]: 112% | viability, T/C [10]: 95% | viability, T/C [11]: 128% | viability, T/C [12]: 133% | viability, T/C [13]: 102% | viability, T/C [14]: 90.7% | viability, T/C [15]: 109% | viability, T/C [16]: 110% | viability, T/C [17]: 119% | viability, T/C [18]: 129% | viability, T/C [19]: 97.5% | viability, T/C [20]: 92% | viability, T/C [21]: 98.3% | viability, T/C [22]: 121% | viability, T/C [23]: 122% | viability, T/C [24]: 122% | viability, T/C [25]: 100% | viability, T/C [26]: 98.7% | viability, T/C [27]: 112% | viability, T/C [28]: 117% | viability, T/C [29]: 122% | viability, T/C [30]: 110% | viability, T/C [31]: 102% | viability, T/C [32]: 102% | viability, T/C [33]: 104% | viability, T/C [34]: 115% | viability, T/C [35]: 116% | viability, T/C [36]: 101% | viability, T/C [37]: 108% | viability, T/C [38]: 90.4% | viability, T/C [39]: 104% | viability, T/C [40]: 102% | viability, T/C [41]: 115% | viability, T/C [42]: 105%

CC(Nc1ccc2c(c1)OCCn1cc(N3C(=O)OCC3C(F)F)nc1-2)C(N)=O (stereo unspecified)
viability, T/C (compound 0.00316 µM): 107% [middle of 8 runs] | viability, T/C (compound 0.01 µM): 104% [middle of 8 runs] | viability, T/C (compound 0.0316 µM): 98.5% [middle of 8 runs] | viability, T/C (compound 0.1 µM): 76.7% [middle of 8 runs] | viability, T/C (compound 0.316 µM): 50.6% [middle of 8 runs] | viability, T/C (compound 1 µM): 35.6% [middle of 8 runs] | IC50 (compound alone, run of 05/08/2023): 300 nM [middle of 8 runs]

Cn1nccc1Nc1nccc(-c2ccn(C(CO)c3ccc(Cl)c(F)c3)c(=O)c2)n1 (stereo unspecified) + CC(Nc1ncnc2nc[nH]c12)c1cc2cccc(Cl)c2c(=O)n1-c1ccccc1
IC50 [1]: 8.7 µM | IC50 [2]: 9.94 µM | IC50 [3]: 8.44 µM | IC50 [4]: 9 µM | IC50 [5]: 7.46 µM | IC50 [6]: 4.01 µM | viability, T/C [7]: 113% | viability, T/C [8]: 94.6% | viability, T/C [9]: 116% | viability, T/C [10]: 98.2% | viability, T/C [11]: 91% | viability, T/C [12]: 44.3% | viability, T/C [13]: 107% | viability, T/C [14]: 98.9% | viability, T/C [15]: 109% | viability, T/C [16]: 101% | viability, T/C [17]: 92.7% | viability, T/C [18]: 49.5% | viability, T/C [19]: 111% | viability, T/C [20]: 98.7% | viability, T/C [21]: 105% | viability, T/C [22]: 106% | viability, T/C [23]: 90% | viability, T/C [24]: 43.5% | viability, T/C [25]: 107% | viability, T/C [26]: 112% | viability, T/C [27]: 107% | viability, T/C [28]: 103% | viability, T/C [29]: 88.1% | viability, T/C [30]: 45.7% | viability, T/C [31]: 100% | viability, T/C [32]: 107% | viability, T/C [33]: 107% | viability, T/C [34]: 103% | viability, T/C [35]: 84.4% | viability, T/C [36]: 38.2% | viability, T/C [37]: 88.5% | viability, T/C [38]: 81.3% | viability, T/C [39]: 87.4% | viability, T/C [40]: 80% | viability, T/C [41]: 56.5% | viability, T/C [42]: 25.1%
